Source: publication PMC11414412, “Design and synthesis new indole-based aromatase/iNOS inhibitors with apoptotic antiproliferative activity” (Frontiers in Chemistry, 2024)

How the values were obtained:
Format in all cases: cell-based, human
Caspase-3 = Caspase-3 activation assay; details: A-594 cells; for Caspase-3 Fold change: at IC50 concentration, vs untreated control; for Caspase-3 Conc: compound at its IC50 concentration
Bcl-2 = Bcl-2 inhibition assay; details: lung (A-549) cancer cells; for Bcl-2 Conc: compound at IC50
Experimental: 4.2.8. Bcl-2 inhibition assay
Mix all reagents thoroughly without foaming before use. Wash the microwells twice with approximately 300 μL Wash Buffer per well with thorough aspiration of microwell contents between washes. Take caution not to scratch the surface of the microwells. After the last wash, empty the wells and tap microwell strips on absorbent pad or paper towel to remove excess Wash Buffer. Use the microwell strips immediately after washing or place upside down on a wet absorbent paper for not longer than 15 minutes. […] Add 100 μL of Sample […]
Diluent in duplicate to all standard wells and to the blank wells. Prepare standard (1:2 dilution) in duplicate ranging from 32 ng/mL to 0.5 ng/mL. Add 100 μL of Sample Diluent, in duplicate, to the blank wells. Add 80 μL of Sample Diluent, in duplicate, to the sample wells. Add 20 μL of each Sample, in duplicate, to the designated wells. Add 50 μL of diluted biotin-conjugate to all wells, including the blank wells. Cover with a plate cover and incubate at room temperature, on a microplate shaker at 100 rpm if available, for 2 hours. Remove plate cover and empty the wells.
Wash microwell strips 3 times as described in step 2. Add 100 μL of diluted Streptavidin-HRP to all wells, including the blank wells. Cover with a plate cover and incubate at room temperature, on a microplate shaker at 100 rpm if available, for 1 hour. Remove plate cover and empty the wells.
Wash microwell strips 3 times as described in step 2. Proceed to the next step. Pipette 100 μl of mixed TMB Substrate Solution to all wells, including the blanks. Incubate the microwell strips at room temperature (18° to 25°C) for about 15 minutes, if available on a rotator set at 100 rpm.
Avoid direct exposure to intense light. The point, at which the substrate reaction is stopped, is often determined by the ELISA reader. Many ELISA readers record absorbance only up to 2.0
O.D. Therefore, the color development within individual microwells must be watched by the person running the assay and the substrate reaction stopped before positive wells are no longer properly detectable. Stop the enzyme reaction by quickly pipetting 100 μL of Stop Solution into each well, including the blank wells. It is important that the Stop Solution is spread quickly and uniformly throughout the microwells to completely inactivate the enzyme. Results must be read immediately after the Stop Solution is added or within one hour i f the microwell strips are stored at 2 - 8°C in the dark. Read absorbance of each microwell on a spectrophotometer using 450 nm as the primary wavelength.

MCF-10A cells = assay: Cell viability assay (MTT) on normal mammary epithelial cells; details: MCF-10A normal cells, 50 µM, 4 days incubation
Experimental: This test investigates the effects of the new compounds 3–16 on normal cell lines to determine their safety. The normal human mammary gland epithelial (MCF-10 A) cell line was used to test the viability of the tested compounds. After 4 days of incubation on MCF-10 A cells within 50 µM of each investigated compound, cell viability was determined using the MTT assay ([Gomaa et al., 2020]; [Marzouk et al., 2020]).
The normal human mammary gland epithelial (MCF-10A) cell line was used to test the viability of the tested compounds. After 4 days of incubation on MCF-10A cells within 50 µM of each investigated compound, cell viability was determined using the MTT assay ([Gomaa et al., 2020]; [Marzouk et al., 2020]). Refer to Supplementary Appendix SA1 (supp. File) for more details.
4.2. Biological evaluation
4.2.1 Cell Viability assay (MTT assay)
MTT assay was performed to investigate the effect of the synthesized compounds on mammary epithelial cells (MCF-10A). The cells were propagated in medium consisting of Ham's F-12 medium/ Dulbecco's modified Eagle's medium (DMEM) (1:1) supplemented with 10% foetal calf serum, 2 mM glutamine, insulin (10 μg/mL), hydrocortisone (500 ng/mL) and epidermal growth factor (20 ng/mL). Trypsin ethylenediamine tetra acetic acid (EDTA) was used to passage the cells after every 2-3 days. 96-well flat-bottomed cell culture plates were used to seed the cells at a density of 10^4 cells mL-1. The medium was aspirated from all the wells of culture plates after 24 h followed by the addition of synthesized compounds (in 200 μL medium to yield a final concentration of 0.1% (v/v) dimethyl sulfoxide) into individual wells of the plates. Four wells were designated to a single compound. The plates were allowed to incubate at 37°C for 96 h. Afterwards, the medium was aspirated and 3-[4,5-dimethylthiazol-2-yl]-2,5-diphenyltetrazolium bromide (MTT) (0.4 mg/mL) in medium was added to each well and subsequently incubated for 3 h. The medium was aspirated and 150 μL dimethyl sulfoxide (DMSO) was added to each well. The plates were vortexed followed by the measurement of absorbance at 540 nm on a microplate reader. The results were presented as inhibition (%) of proliferation in contrast to controls comprising 0.1%

SMILES | Caspase-3 Fold change (Caspase-3) | Caspase-3 Conc (Caspase-3) [pg/mL] | Bcl-2 Conc (Bcl-2) [ng/mL] | Cell viability % (MCF-10A cells) | Bcl-2 Fold reduction (Bcl-2; at IC50, vs untreated control)
CCc1c2cc(Cl)ccc2n2cc(Cc3ccccc3)n(C)c(=O)c12 [Compound 12, 3-Benzyl-8-chloro-10-ethyl-2-methylpyrazino[1,2-a]indol-1(2H)-one] | 9 | 580 ± 5 | 0.65 | no effect | 
CCc1c2cc(Cl)ccc2n2cc(-c3ccccc3)[nH]c(=O)c12 [Compound 16, 8-Chloro-10-ethyl-3-phenylpyrazino [1,2-a]indol-1(2H)-one] | 8 | 530 ± 5 | 0.85 | no effect | ~6
